The source of these data is patent US20230391841A1, “MACROCYCLIC PEPTIDES” (Herantis Pharma OYJ, priority 2019, published 2023).

Series [1] concerns rat hepatocytes. As to the kind of experiment: In vitro metabolic stability in rat hepatocytes. The settings on record: 1 μM, 37° C., up to 60 min. Type of series: in vitro ADME. The method, then:
The linear or macrocyclic compounds 1-14 and 23-26 (SEQ ID NOs: […]) were incubated in concentration 1 μM with pooled cryopreserved rat hepatocytes (Sprague-Dawley, male; 400 pl, 1.0 million viable cells/ml for compounds 1-8, 11-12 and 23-26 or 100 μl, 0.1 million viable cells/ml for compounds 9-10 and 13-14) for different time points (0, 10, 20, 40 or 60 min) at 37° C. The cell density and viability were determined by trypan blue exclusion method. The incubation was terminated by acetonitrile. The collected samples were centrifuged for 20 min at 2272×g and analyzed. The samples were analyzed is by UHPLC/PDA with high resolution mass spectrometry (QE-Orbitrap-MS on DDI mode) (compounds 1-8, 11-12 and 23-26) or HHPLC-ToF mass spectrometry (for compounds 9-and 13-14) to monitor disappearance of the compound. Verapramil 1 μM was used as a disappearance rate control. The analytical method was optimized by using the parent compounds for optimum chromatographic properties (peak shape and retention) and mass spectrometric ionization. The Ion chromatograms were extracted from the total ion chromatograms using calculated monoisotopic accurate masses with 5 mDa window. Disappearance was based on LC/MS peak areas, marking 0 min as 100%. The first-order rate constants k (min-1) of the metabolism were obtained from the slope of time versus logarithm (% of remaining compound) plot using Excel software. The in vitro half-life (t1/2) of study compound is defined as: t1/2In2/k. Calculated half-life is based on compound disappearance in rat liver hepatocytes.

The test system of series [2] is 3D in vitro model of blood-brain barrier. Kind of series: Permeation in a 3D in vitro model of blood-brain barrier. The format is in vitro ADME, human endothelial cells, rat astrocytes and cortical neurons. The settings on record: 500 nM, 2 h. The method, then:
Due to the interest of developing CDNF- and MANF-derived peptides for treatment of CNS diseases with peripheral route of administration, and the fact that macrocyclization can improve cell-penetration and distribution properties of peptides, the ability of the compounds to pass the blood-brain barrier was tested in an established in vitro model of the blood-brain barrier. For this purpose, macrocyclic and linear compounds were incubated at 500 nM for 2 h in a two-compartment in vitro blood-brain barrier model (n=4) followed by sample collection is and LC-MS/MS analysis.
Primary culture of astrocytes. Rat astrocytes were prepared from a E15 embryos. Briefly, pregnant female rats (Wistar, Janvier Labs) of 15 days of gestation were deeply anesthetized in a (CO2 chamber) and then killed by cervical dislocation. Fetuses were collected and immediately placed in ice-cold L15 Leibovitz medium with a 2% penicillin (10,000 U/mL) and streptomycin (10 mg/mL) solution (PS) and 1% bovine serum albumin (BSA). Full brains were treated for 20 min at 37° C. with a trypsin- EDTA solution at a final concentration of 0.05% trypsin and 0.02% EDTA. Dissociated cells were cultured in DMEM 10% fetal calf serum. Purified astrocytes were used at passage 4 (P4).
Culture of human endothelial cells. A vial of HBMEC (Primary Human Brain Microvascular Endothelial Cells, ACBRI 376) was used at a specific passage 8 (P8).
Primary culture of cortical neurons. Rat cortical neurons were cultured as described by Callizot et al., 2013 with modification. Briefly, pregnant female rats (Wistar, Janvier Labs) of […] were deeply anesthetized in a CO2 chamber and then killed by cervical io dislocation. Fetuses were collected and immediately placed in ice-cold L15 Leibovitz medium with a 2% penicillin (10,000 U/mL) and streptomycin (10 mg/mL) solution (PS) and 1% bovine serum albumin (BSA). Cortices were treated for 20 min at 37° C. with a trypsin-EDTA solution at a final concentration of 0.05% trypsin and 0.02% EDTA. The dissociation was stopped by addition of Dulbecco's modified Eagle's medium (DMEM) with 4.5 g/L of glucose, containing is DNAse I grade II (final concentration 0.5 mg/m L) and 10% fetal calf serum (FCS). Cells were mechanically dissociated by three forced passages through the tip of a 10-m1 pipette. Cells were then centrifuged at 515×g for 10 min at 4° C. The pellet resuspended in a defined culture medium consisting of Neurobasal medium with a 2% solution of B27 supplement, 2 mmol/L of L-glutamine, 2% of PS solution, 10 ng/mL of brain-derived neurotrophic factor (BDNF). Viable cells were counted in a Neubauer cytometer, using the trypan blue exclusion test. The cortical neurons were seeded in the bottom of well pre-coated with poly-L-lysine at a density of 255,000 per well in 24-well plate with insert and cultured at 37° C. in an air (95%)-CO2 (5%) incubator. The culture medium was changed every other day.
Co-Culture of endothelial cells, astrocytes and primary cortical neurons. The procedure was performed as previously published (Xue et al., 2013 with modifications, Callizot et al., 2017). Briefly, on day 0, purified astrocytes (P4) were rapidly thawed in a water bath at 37° C. The cells were immediately put in DMEM containing 10% of FCS. Cell suspension was centrifuged at 515×g for 5 min at 4° C. and the pellets were suspended in DMEM F12 containing 10% of FCS. Cells were seeded in the outer side of the insert membrane (PET, 1 μm) at the density of 45,000 cells per insert and cultured at 37° C. in an air (95%)-CO2 (5%) incubator. Thirty-six (36) hours after the astrocytes seeding, HBMEC (P8) were rapidly thawed in a water bath at 37° C. and immediately put in DMEM containing 10% of FCS. Cell suspension was centrifuged at 515×g for 5 min at 4° C. and the pellets were suspended in EGM-2 bullet kit containing 5% of FCS, 1% of PS solution, 1.4 μM of Hydrocortisone, 5 μg/mL of acid ascorbic, 1% of lipid mixture, 10 mM of HEPES, 1 ng/mL of bFGF. […]

Series [3] can be described thus: In vitro metabolic stability in rat plasma. The format is in vitro ADME. The settings on record: 1 μM, 37° C., up to 120 min. The procedure:
The linear and macrocyclic compounds 1-14 and 23-26 (SEQ ID NOs: 1-14 and 23-26) were incubated in concentration 1 μM with rat plasma (Sprague-Dawley, male; 400 μl) for different time points (0, 20, 40, 60 or 120 min) at 37° C. The incubation was terminated by acetonitrile. The collected samples were centrifuged for 20 min at 2272×g and analyzed. io Stock solutions were prepared using 50% DMSO, and the compounds were spiked 1/100 to incubation to have final DMSO content of 0.5%. The samples were analyzed by UHPLC/PDA with high resolution mass spectrometry (QE-Orbitrap-MS on DDI mode) to monitor disappearance of the compound. Enalapril 1 μM was used as a disappearance rate control. For analysis of compounds 9, 10, 13 and 14 stock solutions were prepared with PBS, and samples were analyzed by UHPLC-ToF mass spectrometry. The analytical method was optimized by using the parent compounds for optimum chromatographic properties (peak shape and retention) and mass spectrometric ionization. The ion chromatograms were extracted from the total ion chromatograms using calculated monoisotopic accurate masses with 5 mDa window. Disappearance was based on LC/MS peak areas, marking 0 min as 100%.
The first-order rate constants k (min-1) of the metabolism were obtained from the slope of time versus logarithm (% of remaining compound) plot using Excel software. The in vitro half-life (t1/2) of study compound is defined as: t1/2=In2/k. Calculated half-life is based on compound disappearance from rat plasma.

Series [4] deals with human hepatocytes. Kind of series: In vitro metabolic stability in human hepatocytes. The format is in vitro ADME. The settings on record: 1 μM, 37° C., up to 60 min. The procedure: The linear or macrocyclic compounds 1-8, 11-14 and 23-26 (SEQ ID NOs: 1-8, 11-14 and 23-26) were incubated in concentration 1 μM with pooled cryopreserved human hepatocytes (mixed gender; 400 pl, 1.0 million viable cells/ml) for different time points (0, 20, 40 or 60 min) at 37° C. The cell density and viability were determined by trypan blue is exclusion method. The incubation was terminated by acetonitrile. The collected samples were centrifuged for 20 min at 2272×g and analyzed. The samples were analyzed by UPLC/PDA with high resolution mass spectrometry (QE-Orbitrap-MS on DDI mode) to monitor disappearance of the compound. Verapramil 1 μM was used as a disappearance rate control. The analytical method was optimized by using the parent compounds for optimum chromatographic properties (peak shape and retention) and mass spectrometric ionization. The Ion chromatograms were extracted from the total ion chromatograms using calculated monoisotopic accurate masses with 5 mDa window. Disappearance was based on LC/MS peak areas, marking 0 min as 100%. The first-order rate constants k (min-1) of the metabolism were obtained from the slope of time versus logarithm (% of remaining compound) plot using Excel software. The in vitro half-life (t1/2) of study compound is defined as: t1/2In2/k. Calculated half-life is based on compound disappearance in human liver hepatocytes.

Bridge positions count the residues as written; N and C are the ends. Peptide text beside a SMILES is read from it.

In the case of `CC[C@H](C)[C@@H]1NC(=O)[C@H](CCCCN)NC(=O)[C@H](CCCCN)NC(=O)[C@H](CC(C)C)NC(=O)[C@H](CCC(=O)O)NC(=O)[C@H](CCCCN)NC(=O)[C@H](C(C)C)NC(=O)[C@H](CCCNC(=N)N)NC(=O)[C@H](CC(C)C)NC(=O)[C@H](CCCCN)NC(=O)[C@H](CCCCN)NC(=O)[C@H](CC(C)C)NC(=O)[C@H](CC(=O)O)NC(=O)[C@H](C(C)C)NC(=O)[C@H](CCC(=O)O)NC(=O)[C@H](C)NC(=O)[C@@H]2CSSC[C@H](NC(=O)[C@H]([C@@H](C)O)NC(=O)[C@H](CCC(=O)O)NC(=O)CNC(=O)[C@H](Cc3c[nH]c4ccccc34)NC(=O)[C@H](CC(=O)O)NC(=O)[C@H](CC(=O)O)NC(=O)[C@H](CC(C)C)NC1=O)C(=O)N[C@@H](CCCCN)C(=O)NCC(=O)N2` [Compound 4] (cyclo(AEVDLKKLRVKELKKILDDWGETCKGC); disulfide 24-27), in series [1], the “stability in rat hepatocytes as compared to linear counterpart” value is listed as “significantly improved stability”. Moreover, the “ability to pass through the in vitro blood-brain barrier as compared to linear counterpart” value in series [2] is on record as “improved ability to pass”. Also, in series [3], the “stability in rat plasma as compared to linear counterpart” value is on record as “improved stability”. Also, the “stability in human hepatocytes as compared to linear counterpart” value in series [4] is given as “significantly improved stability”.
